# Laboratory results as given in PubChem BioAssay (NCI).
#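 Exposure lasted 48 hours, with cells grown in 96-well plates and compounds tested at five concentrations. At the GI50, growth is halved. At the TGI there is no net growth.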
# Assays:
# Experiment in all cases: NCI tumour cell line growth inhibition, 48 h
# SN12C renal = tested on: SN12C renal
# SF-295 CNS = tested on: SF-295 CNS
# SK-MEL-2 melanoma = tested on: SK-MEL-2 melanoma
# 786-0 renal = tested on: 786-0 renal
# HCT-116 colon = tested on: HCT-116 colon
# SK-MEL-5 melanoma = tested on: SK-MEL-5 melanoma
# MDA-MB-231 breast = tested on: MDA-MB-231 breast
# HCC-2998 colon = tested on: HCC-2998 colon
# SF-539 CNS = tested on: SF-539 CNS
# HOP-92 NSCLC = tested on: HOP-92 NSCLC
# NCI-H460 lung = tested on: NCI-H460 lung
# DU-145 prostate = tested on: DU-145 prostate
# LOX IMVI melanoma = tested on: LOX IMVI melanoma
# IGROV1 ovarian = tested on: IGROV1 ovarian
# TK-10 renal = tested on: TK-10 renal
# OVCAR-8 ovarian = tested on: OVCAR-8 ovarian
# HL-60(TB) leukemia = tested on: HL-60(TB) leukemia
# SK-OV-3 ovarian = tested on: SK-OV-3 ovarian
# HCT-15 colon = tested on: HCT-15 colon
# RPMI-8226 leukemia = tested on: RPMI-8226 leukemia
# NCI/ADR-RES ovarian = tested on: NCI/ADR-RES ovarian
# NCI-H226 lung = tested on: NCI-H226 lung
# HS 578T breast = tested on: HS 578T breast
# A498 renal = tested on: A498 renal
# T-47D breast = tested on: T-47D breast
# COLO 205 colon = tested on: COLO 205 colon
# MOLT-4 leukemia = tested on: MOLT-4 leukemia
# SF-268 CNS = tested on: SF-268 CNS
# HT29 colon = tested on: HT29 colon
# UACC-62 melanoma = tested on: UACC-62 melanoma
# HOP-62 NSCLC = tested on: HOP-62 NSCLC
# U251 CNS = tested on: U251 CNS
# PC-3 prostate = tested on: PC-3 prostate
# SR leukemia = tested on: SR leukemia
# EKVX NSCLC = tested on: EKVX NSCLC
# K-562 leukemia = tested on: K-562 leukemia
# M14 melanoma = tested on: M14 melanoma
# SW-620 colon = tested on: SW-620 colon
# SNB-75 CNS = tested on: SNB-75 CNS
# UO-31 renal = tested on: UO-31 renal
# RXF 393 renal = tested on: RXF 393 renal
# CCRF-CEM leukemia = tested on: CCRF-CEM leukemia
# OVCAR-5 ovarian = tested on: OVCAR-5 ovarian
# CAKI-1 renal = tested on: CAKI-1 renal
# KM12 colon = tested on: KM12 colon
# SNB-19 CNS = tested on: SNB-19 CNS
# SK-MEL-28 melanoma = tested on: SK-MEL-28 melanoma
# NCI-H23 lung = tested on: NCI-H23 lung
# ACHN renal = tested on: ACHN renal
# A549 NSCLC = tested on: A549 NSCLC
# OVCAR-4 ovarian = tested on: OVCAR-4 ovarian
# MALME-3M melanoma = tested on: MALME-3M melanoma
# MCF7 breast = tested on: MCF7 breast
# NCI-H522 lung = tested on: NCI-H522 lung
# BT-549 breast = tested on: BT-549 breast
smiles,measurement,setting,value
COc1ccc(C2CC(=O)c3c(O)c(OC)c(OC)c(OC)c3O2)c(O)c1 (stereo not given),GI50,SN12C renal,1.23 µM
same,TGI,SN12C renal,70.4 µM
same,GI50,SF-295 CNS,0.349 µM
same,TGI,SF-295 CNS,14.6 µM
same,GI50,SK-MEL-2 melanoma,0.0809 µM
same,TGI,SK-MEL-2 melanoma,23.4 µM
same,GI50,786-0 renal,0.839 µM
same,TGI,786-0 renal,> 100 µM
same,GI50,HCT-116 colon,0.053 µM
same,TGI,HCT-116 colon,60.9 µM
same,GI50,SK-MEL-5 melanoma,0.0673 µM
same,TGI,SK-MEL-5 melanoma,2.03 µM
same,GI50,MDA-MB-231 breast,0.997 µM
same,TGI,MDA-MB-231 breast,31.7 µM
same,GI50,HCC-2998 colon,0.761 µM
same,TGI,HCC-2998 colon,27.2 µM
same,GI50,SF-539 CNS,0.14 µM
same,TGI,SF-539 CNS,9.39 µM
same,GI50,HOP-92 NSCLC,0.0574 µM
same,TGI,HOP-92 NSCLC,13.9 µM
same,GI50,NCI-H460 lung,0.0637 µM
same,TGI,NCI-H460 lung,10.9 µM
same,GI50,DU-145 prostate,0.25 µM
same,TGI,DU-145 prostate,15.9 µM
same,GI50,LOX IMVI melanoma,0.432 µM
same,TGI,LOX IMVI melanoma,19.2 µM
same,GI50,IGROV1 ovarian,0.535 µM
same,TGI,IGROV1 ovarian,39.6 µM
same,GI50,TK-10 renal,4.96 µM
same,TGI,TK-10 renal,49 µM
same,GI50,OVCAR-8 ovarian,0.294 µM
same,TGI,OVCAR-8 ovarian,40.9 µM
same,GI50,HL-60(TB) leukemia,0.0459 µM
same,TGI,HL-60(TB) leukemia,0.632 µM
same,GI50,SK-OV-3 ovarian,0.308 µM
same,TGI,SK-OV-3 ovarian,24.8 µM
same,GI50,HCT-15 colon,0.0498 µM
same,TGI,HCT-15 colon,17.8 µM
same,GI50,RPMI-8226 leukemia,0.372 µM
same,TGI,RPMI-8226 leukemia,18.4 µM
same,GI50,NCI/ADR-RES ovarian,0.0565 µM
same,TGI,NCI/ADR-RES ovarian,20.6 µM
same,GI50,NCI-H226 lung,4.49 µM
same,TGI,NCI-H226 lung,24.7 µM
same,GI50,HS 578T breast,0.201 µM
same,TGI,HS 578T breast,48.7 µM
same,GI50,A498 renal,0.126 µM
same,TGI,A498 renal,0.984 µM
same,GI50,T-47D breast,0.113 µM
same,TGI,T-47D breast,24.6 µM
same,GI50,COLO 205 colon,4.43 µM
same,TGI,COLO 205 colon,18 µM
same,GI50,MOLT-4 leukemia,1.65 µM
same,TGI,MOLT-4 leukemia,29.6 µM
same,GI50,SF-268 CNS,0.534 µM
same,TGI,SF-268 CNS,38.3 µM
same,GI50,HT29 colon,2.64 µM
same,TGI,HT29 colon,> 100 µM
same,GI50,UACC-62 melanoma,0.0566 µM
same,TGI,UACC-62 melanoma,20.2 µM
same,GI50,HOP-62 NSCLC,0.211 µM
same,TGI,HOP-62 NSCLC,28.2 µM
same,GI50,U251 CNS,0.0985 µM
same,TGI,U251 CNS,36.1 µM
same,GI50,PC-3 prostate,0.0707 µM
same,TGI,PC-3 prostate,20.8 µM
same,GI50,SR leukemia,0.0582 µM
same,TGI,SR leukemia,27 µM
same,GI50,EKVX NSCLC,0.232 µM
same,TGI,EKVX NSCLC,88.8 µM
same,GI50,K-562 leukemia,0.0378 µM
same,TGI,K-562 leukemia,26.2 µM
same,GI50,M14 melanoma,0.0834 µM
same,TGI,M14 melanoma,15.4 µM
same,GI50,SW-620 colon,0.0484 µM
same,TGI,SW-620 colon,21.4 µM
same,GI50,SNB-75 CNS,0.0625 µM
same,TGI,SNB-75 CNS,0.858 µM
same,GI50,UO-31 renal,1.09 µM
same,TGI,UO-31 renal,21.4 µM
same,GI50,RXF 393 renal,0.243 µM
same,TGI,RXF 393 renal,25.5 µM
same,GI50,CCRF-CEM leukemia,0.134 µM
same,TGI,CCRF-CEM leukemia,31.5 µM
same,GI50,OVCAR-5 ovarian,5.57 µM
same,TGI,OVCAR-5 ovarian,93.4 µM
same,GI50,CAKI-1 renal,0.781 µM
same,TGI,CAKI-1 renal,60.4 µM
same,GI50,KM12 colon,0.0693 µM
same,TGI,KM12 colon,15.7 µM
same,GI50,SNB-19 CNS,0.384 µM
same,TGI,SNB-19 CNS,> 100 µM
same,GI50,SK-MEL-28 melanoma,10.5 µM
same,TGI,SK-MEL-28 melanoma,25.6 µM
same,GI50,NCI-H23 lung,0.392 µM
same,TGI,NCI-H23 lung,18.6 µM
same,GI50,ACHN renal,1.2 µM
same,TGI,ACHN renal,58.2 µM
same,GI50,A549 NSCLC,0.41 µM
same,TGI,A549 NSCLC,28.8 µM
same,GI50,OVCAR-4 ovarian,1.18 µM
same,TGI,OVCAR-4 ovarian,66.9 µM
same,GI50,MALME-3M melanoma,13.1 µM
same,TGI,MALME-3M melanoma,26.7 µM
same,GI50,MCF7 breast,0.0462 µM
same,TGI,MCF7 breast,15.7 µM
same,GI50,NCI-H522 lung,0.0326 µM
same,TGI,NCI-H522 lung,0.188 µM
same,GI50,BT-549 breast,0.221 µM
same,TGI,BT-549 breast,20.5 µM
